According to patent publication US7605121B2, “Oligopeptide lyophilisate, their preparation and use” (AEterna Zentaris GmbH, priority 1993, dated 2009):
Where a SMILES comes first, the peptide text is derived from it. [ ]: non-standard residue; d: D form. dPhe(4-Cl) = N[C@H](Cc1ccc(Cl)cc1)C(=O)O; d2Nal = N[C@H](Cc1ccc2ccccc2c1)C(=O)O; dCit = NC(=O)NCCC[C@@H](N)C(=O)O; d3Pal = N[C@H](Cc1cccnc1)C(=O)O

What was measured:
[1] = Dissolution in 30% volume/volume acetic acid; format: physicochemical
Protocol: (§1) The solution is then diluted to a final concentration of 3% peptide, e.g., cetrorelix, with water for injection purposes and mannitol is added. Although it is stated in the literature that the terminal amide group hydrolyzes easily in acid medium, this was not found in the case of cetrorelix. Solutions prepared according to this method caused no difficulties during filtration. The correct amounts of active substance were always found.

[2] = system: endogenous hormone production (LH-FSH, oestradiol); assay: Suppression of endogenous hormone production in in-vitro fertilization treatment; format: in vivo, patients; details: treatment over 5 days; female sterility / in-vitro fertilization
Description: The premature LH peaks cannot arise and the frequency of hyperstimulation syndrome should be reduced. In addition, less HMG is used in the 2nd phase of therapy, the ovulation triggering phase. This gives this in-vitro fertilization treatment a not inconsiderable cost advantage. In-vitro fertilization is, for example, used when a tube anomaly is present. To perform this treatment it is necessary to precisely monitor the cycle and to establish the time of ovulation as precisely as possible. This has hitherto only been achieved to a limited extent since preovulatory LH increase often occurred too early due to simulation with HMG/HCG, or was not maintained for a sufficiently long period. Avoidance of this premature increase is, however, of critical importance for the success of the treatment in order to precisely determine the time of fertilization. This reduces the physical and mental burden on the patient and makes optimum use of hospital logistics. To achieve this objective with great reliability it is necessary to suppress endogenous hormone production (LH-FSH, oestradiol) as completely as possible in order to simultaneously stimulate follicle maturation through administration of exogenous gonadotrophins (HMG/HCG) and to monitor the hormone status at any time. […]

[3] = Stability of aqueous solution / conventional sterilization; format: physicochemical
Protocol: It should be possible to administer the active substance subcutaneously in a dose of 0.1 to 20 mg. Aqueous solutions of the decapeptide are unstable, and, therefore, autoclaving in the container used to distribute it is not possible. […] To obtain an injectable solution it was therefore necessary to develop a lyophilizate.

[4] = Hydrolysis of terminal amide group in acid medium; format: physicochemical; details: acid medium (acetic acid solution)
Protocol: as §1

## CC(=O)N[C@H](Cc1ccc2ccccc2c1)C(=O)N[C@H](Cc1ccc(Cl)cc1)C(=O)N[C@H](Cc1cccnc1)C(=O)N[C@@H](CO)C(=O)N[C@@H](Cc1ccc(O)cc1)C(=O)N[C@H](CCCNC(N)=O)C(=O)N[C@@H](CC(C)C)C(=O)N[C@@H](CCCNC(=N)N)C(=O)N1CCC[C@H]1C(=O)N[C@H](C)C(N)=O [Cetrorelix] (Ac-[d2Nal][dPhe(4-Cl)][d3Pal]SY[dCit]LRP[dA]-NH2)
[1]
  Solubility in acetic acid: easily dissolved
[2]
  Suppression achieved: total suppression
[3]; aqueous solution, autoclaving in the container not possible
  Stability of aqueous solutions: unstable
[3]; conventional sterilization, prescribed conditions
  Behaviour during conventional sterilization: tends to decompose
[4]
  Hydrolysis of terminal amide group: not found
